Consider 16 molecules from patent US6403561B1, “Tripeptidylpeptidase inhibitors” (Institut National de la Sante et de la Recherche Medicale …, priority 1998, dated 2002).

Counter-ions that a name gives are not always drawn. Where a SMILES comes first, the peptide text is derived from it. [ ]: non-standard residue; d: D form. The star is where a group is joined. Oic = O=C(O)[C@@H]1C[C@@H]2CCCC[C@@H]2N1; Tic = O=C(O)[C@@H]1Cc2ccccc2CN1; Abu = CC[C@H](N)C(=O)O; NHBu = CCCCN*; NHPr = CCCN*

The target of data set [1] is membrane-bound tripeptidylpeptidase II (Rattus norvegicus, UniProt Q64560). In words: Measurement of the activity of membrane-bound tripeptidylpeptidase (release of Amc from A-AP-Amc, fluorimetry). As to conditions: apparent dissociation constant calculated from the 50% inhibitory concentration and the KM of the substrate (23 μM), rat brain membranes, 50 μM A-AP-Amc.
Description: Membranes from rat brain were obtained by centrifugation (200,000×g min) of a homogenate prepared in 10 volumes of 50 mM potassium phosphate buffer, pH 7.4.
After washing thoroughly, the centrifugation pellet is taken up in the buffer containing 10% glycerol and 0.1% Brij 35 in order to obtain a concentration of 25 mg of proteins/ml.
The release of Amc is evaluated by fluorimetry.
Data set [2] addresses T1, liver TPP II (Mus musculus, UniProt Q64514).
T1 construct: measuring the residual catalytic activity on membranes from brain or from a peripheral organ; from tissue; host or cells: mouse liver (membranes), ex vivo after oral dosing
Briefly: Inhibitory activity of TPP II ex vivo after administration to a rodent. The class given is in vivo. Conditions: mice, 90 minutes after oral administration of 10 mg/kg. The method, then: This test is completed by an evaluation of the inhibitory activity of TPP II “ex vivo”, which consists in administering a compound according to the invention to a rodent and in measuring the residual catalytic activity on membranes from brain or from a peripheral organ.
For example, the activity of liver TPP II measured in mice 90 minutes after oral administration of 10 mg/kg of the compound of Example 9 is about 90-100% inhibited.

Data set [3] concerns endogenous CCK-8. In words: Protection of endogenous CCK-8 released from slices of depolarized rat cerebral cortex (radioimmunoassay). Type of data set: cell-based. As to conditions: concentration of 1 μM. The method, then: At a concentration of 1 μM, it multiplies the recovery of released CCK-8 4-fold (measured by radioimmunoassay).
A short description of data set [4]: Anorexigenic (pro-satiety) activity: spontaneous taking of solid food. The class given is in vivo. As to conditions: mice, 10 mg/kg intravenously, 30 to 90 minutes after free access to food, after overnight fasting. The method, then: In mice, at a dose of 10 mg/kg (intravenously), this compound decreases the spontaneous taking of solid food (“UAR” tablet) by 45%, measured over a period of 30 to 90 minutes after free access to this food (period preceded by fasting overnight and oral administration of 0.2 ml of a semi-liquid meal).

Chain of membrane-bound tripeptidylpeptidase II (Q64560 whole entry): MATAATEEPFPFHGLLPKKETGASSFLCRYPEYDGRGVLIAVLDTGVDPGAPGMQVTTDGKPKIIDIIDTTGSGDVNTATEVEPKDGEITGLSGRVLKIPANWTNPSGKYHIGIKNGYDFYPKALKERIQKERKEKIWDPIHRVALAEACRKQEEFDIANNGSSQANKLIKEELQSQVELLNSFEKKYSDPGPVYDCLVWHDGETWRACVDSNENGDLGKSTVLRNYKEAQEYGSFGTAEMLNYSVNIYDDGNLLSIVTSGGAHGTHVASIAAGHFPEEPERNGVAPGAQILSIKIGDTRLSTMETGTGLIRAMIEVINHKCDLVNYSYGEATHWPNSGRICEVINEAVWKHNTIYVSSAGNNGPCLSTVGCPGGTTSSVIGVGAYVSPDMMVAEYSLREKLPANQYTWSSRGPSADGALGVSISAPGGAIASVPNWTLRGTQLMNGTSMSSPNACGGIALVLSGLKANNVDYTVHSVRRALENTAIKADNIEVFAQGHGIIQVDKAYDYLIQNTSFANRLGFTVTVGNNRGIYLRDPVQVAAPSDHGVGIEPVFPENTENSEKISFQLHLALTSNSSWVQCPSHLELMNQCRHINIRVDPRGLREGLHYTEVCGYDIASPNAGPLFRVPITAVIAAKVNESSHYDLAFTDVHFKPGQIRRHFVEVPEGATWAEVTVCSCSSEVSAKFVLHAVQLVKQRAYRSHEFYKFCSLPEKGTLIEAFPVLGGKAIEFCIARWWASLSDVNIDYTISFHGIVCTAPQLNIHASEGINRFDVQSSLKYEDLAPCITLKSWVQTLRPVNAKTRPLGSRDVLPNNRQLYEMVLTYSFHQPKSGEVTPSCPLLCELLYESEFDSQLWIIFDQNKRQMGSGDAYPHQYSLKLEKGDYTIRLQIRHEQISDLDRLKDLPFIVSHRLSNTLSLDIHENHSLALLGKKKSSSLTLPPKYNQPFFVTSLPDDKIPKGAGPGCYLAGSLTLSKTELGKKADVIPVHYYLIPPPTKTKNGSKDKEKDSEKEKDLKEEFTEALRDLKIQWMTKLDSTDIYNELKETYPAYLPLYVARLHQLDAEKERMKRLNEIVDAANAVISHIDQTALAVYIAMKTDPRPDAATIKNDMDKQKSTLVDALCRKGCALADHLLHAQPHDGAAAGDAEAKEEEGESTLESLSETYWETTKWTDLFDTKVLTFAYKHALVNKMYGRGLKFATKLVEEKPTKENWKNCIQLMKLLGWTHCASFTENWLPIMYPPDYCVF
T1 sequence (Q64514 whole entry): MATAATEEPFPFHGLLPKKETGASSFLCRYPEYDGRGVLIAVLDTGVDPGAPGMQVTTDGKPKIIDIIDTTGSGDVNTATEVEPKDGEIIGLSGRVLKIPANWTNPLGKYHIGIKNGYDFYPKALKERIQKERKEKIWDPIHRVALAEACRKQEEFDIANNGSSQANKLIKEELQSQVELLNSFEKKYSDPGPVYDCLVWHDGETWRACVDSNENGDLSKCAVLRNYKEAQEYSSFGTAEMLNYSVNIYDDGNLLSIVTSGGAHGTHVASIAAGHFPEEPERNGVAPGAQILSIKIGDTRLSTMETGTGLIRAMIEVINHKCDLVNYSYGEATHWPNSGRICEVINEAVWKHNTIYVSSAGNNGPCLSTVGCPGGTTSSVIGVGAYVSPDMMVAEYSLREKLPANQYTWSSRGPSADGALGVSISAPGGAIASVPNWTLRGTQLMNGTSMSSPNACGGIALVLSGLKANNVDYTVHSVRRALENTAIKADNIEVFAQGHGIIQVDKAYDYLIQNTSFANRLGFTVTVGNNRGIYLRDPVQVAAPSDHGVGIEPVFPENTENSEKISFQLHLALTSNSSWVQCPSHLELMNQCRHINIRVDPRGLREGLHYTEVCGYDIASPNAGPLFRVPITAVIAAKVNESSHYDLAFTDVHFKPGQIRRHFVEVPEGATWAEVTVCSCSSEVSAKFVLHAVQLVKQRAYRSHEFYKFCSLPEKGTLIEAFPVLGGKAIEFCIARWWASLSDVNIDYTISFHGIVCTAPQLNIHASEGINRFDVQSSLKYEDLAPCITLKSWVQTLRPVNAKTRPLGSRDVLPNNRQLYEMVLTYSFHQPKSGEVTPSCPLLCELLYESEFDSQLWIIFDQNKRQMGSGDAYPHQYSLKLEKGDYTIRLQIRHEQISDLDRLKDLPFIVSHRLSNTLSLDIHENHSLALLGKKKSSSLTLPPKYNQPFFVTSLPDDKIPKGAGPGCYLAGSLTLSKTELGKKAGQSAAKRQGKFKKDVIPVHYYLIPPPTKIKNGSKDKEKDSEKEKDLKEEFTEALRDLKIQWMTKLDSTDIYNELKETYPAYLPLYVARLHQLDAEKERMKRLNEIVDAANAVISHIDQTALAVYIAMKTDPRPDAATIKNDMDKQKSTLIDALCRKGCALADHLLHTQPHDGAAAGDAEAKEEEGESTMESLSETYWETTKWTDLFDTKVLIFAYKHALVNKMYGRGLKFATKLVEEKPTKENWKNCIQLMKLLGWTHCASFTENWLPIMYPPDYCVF

Broadly, the melting point is the temperature, or range, at which the solid turns liquid. For `CCCCNC(=O)[C@@H]1Cc2cc(OC)ccc2N1C(=O)[C@H](C)N.O=C(O)C(=O)O` [Example 26, 1-(L-alanyl)-5-methoxyindoline-2(S)-carboxylic Butylamide Oxalate], the melting point fell in the range of 141 to 143 °C. For the same molecule, the Ki in data set [1] (Ki) was 7.5 nM.

On to `CC(C)[C@H](NC(=O)[C@@H]1CCCN1C(=O)[C@H](C)N)B1OC2CC3CC(C3(C)C)C2(C)O1` (stereo partly drawn) [Example 9, L-alanyl-L-prolyl-L-borovaline pinanediol ester], for which the “inhibition of the activity of liver TPP II” value in data set [2] was 90-100%. In data set [1], the Ki is 0.3 nM.

With `CCCCNC(=O)[C@@H]1C[C@@H]2CCCC[C@@H]2N1C(=O)[C@@H](N)CC` [Example 22, 1-(2(S)-aminobutyryl)-2(S)-[(3aS,7aS)-perhydro]indolinecarboxylic Acid N-butylamide] (H-[Abu]-[Oic]-NHBu), the “recovery of released CCK-8” value in data set [3] was 4 fold. Further, the “decrease of the spontaneous taking of solid food” value in data set [4] is reported as 45%. Also, the Ki in data set [1] (Ki) was 560 nM.

For `CCCCNC(=O)[C@@H]1Cc2cc(O)ccc2N1C(=O)[C@@H](N)CC.O=C(O)C(=O)O` [Example 33, 1-(2(S)-aminobutyryl)-5-hydroxyindoline-2(S)-carboxylic Acid Butylamide Oxalate], the melting point lay in the range of 156.5 to 158 °C. Further, the Ki in data set [1] (Ki) was 6.6 nM.

Take `CCCCNC(=O)[C@@H]1Cc2c(OCC)cccc2N1C(=O)[C@@H](N)CC.O=C(O)C(=O)O` [Example 31, 1-(2(S)-aminobutyryl)-4-ethoxyindoline-2(S)-carboxylic Acid Butylamide Oxalate]: the melting point fell in the range of 144.7 to 146.2 °C. Moreover, the Ki in data set [1] (Ki) is 29 nM.

Molecule `CCCCNC(=O)C1Cc2c(ccc(OC)c2OC)N1C(=O)[C@@H](N)CC.O=C(O)C(=O)O` (mixture of isomers) [Example 32, 1-(2(S)-aminobutyryl)-4,5-dimethoxyindoline-2(R/S)-carboxylic Acid Butylamide Oxalate] came in with a melting point of 196.1 to 197.5 °C.

`CCCCNC(=O)[C@@H]1CCCN1C(=O)[C@@H](N)C(C)C` (as salt: oxalate) [Example 8, L-valyl-L-proline n-butylamide] (H-Val-Pro-NHBu) had a melting point of 165 to 166 °C.

As to `CC[C@H](C)CNC(=O)[C@@H]1CCCN1C(=O)[C@@H](N)CC` (as salt: oxalate) [Example 5, 1-(2(S)-aminobutyryl)-L-proline [2(S)methyl]butylamide], the melting point is 135 to 136 °C.

The molecule `CCCNC(=O)[C@@H]1CCCN1C(=O)[C@@H](N)CC` (as salt: trifluoroacetate) [Example 6, 1-(2(S)-amino-butyryl)-L-proline n-propylamide] (H-[Abu]-Pro-NHPr) showed a melting point of 46 to 51 °C.

Molecule `CC[C@H](N)C(=O)N1CCC[C@H]1C(=O)NCCCSC` (as salt: oxalate) [Example 2, 1-(2(S)-amino-butyryl)-L-proline 3-(methylthio)propylamide] gave a melting point of 120 to 121 °C.

The molecule `CC[C@H](N)C(=O)N1c2ccccc2C[C@H]1C(=O)NC` (as salt: oxalate) (hydrate or solvate) [Example 16, 1-(2(S)-aminobutyryl)-2(S)-indolinecarboxylic Acid methylamide] registered a melting point of 138 to 139 °C.

As to `CCCCNC(=O)C1Cc2cc(OC)ccc2N1C(=O)[C@H](C)N.O=C(O)C(=O)O` (mixture of isomers) [Example 25, 1-(L-alanyl)-5-methoxyindoline-2(R/S)-carboxylic Acid Butylamide Oxalate], the melting point is 112 to 118 °C.

`CCCCNC(=O)C1Cc2cc(OC)ccc2N1C(=O)[C@@H](N)C(C)C.O=C(O)C(=O)O` (mixture of isomers) [Example 24, 1-(L-valyl)-5-methoxyindoline-2(R/S)-carboxylic Acid Butylamide Oxalate]: the melting point was in the range of 112 to 120 °C.

The molecule `CCCCNC(=O)C1c2ccccc2CN1C(=O)[C@@H](N)CC` (mixture of isomers) (as salt: oxalate) [Example 23, 2-(2(S)-aminobutyryl)-1-(R/S)-isoindolinecarboxylic Acid N-butylamide] yielded a melting point of 90 to 92 °C.

In the case of `CCCCCCNC(=O)[C@@H]1CCCN1C(=O)[C@@H](N)C(C)C` (as salt: oxalate) [Example 1, L-valyl-L-proline n-hexylamide], the melting point fell in the range of 146 to 147 °C.

The molecule `CCCCNC(=O)[C@@H]1Cc2ccccc2CN1C(=O)[C@@H](N)CC` (as salt: oxalate) [Example 13, 2-(2(S)-amino-butyryl)-1,2,3,4-tetrahydro-3(S)-isoquinolinecarboxylic Acid n-butylamide] (H-[Abu]-[Tic]-NHBu) gave a melting point of 105 to 110 °C.
